Holding throughout (assay type): cell-based
One experiment relates to mouse B16F10 cells. Kind of experiment: Protection of melanocytes from tunicamycin (ER stress) induced cell death, MTT assay, B16F10. The settings on record: for pEC50: Mus musculus, B16-F10, different concentrations of compound along with tunicamycin, GraphPad Prism 7; for % Recovery: compound at 25-30 μM, 6 h pretreatment, tunicamycin 300 ng/ml, total 72 h, cell growth over tunicamycin treatment. The method, then: (§1) Compounds synthesized under present invention were tested for their in vitro potency. The potency was tested as their ability to protect melanocytes from ER stress induced cell death. ER stress was caused by the treatment of tunicamycin. The results obtained are summarized in Table-I, Table-II and Table-III for mouse B16F10 cells, human A375 cells and human primary melanocytes respectively. Table-IV and Table-V describes the potency of the compounds in effective concentration 50 (EC50) which means the dose of compound needed to get the 50% of maximum effect.
(§2) For the estimation of potency, mouse B16F10, human A375 or human primary melanocytes (NHEM) cells were pretreated in quadruplicates with these compounds for 6 hours. After 6 hours of incubation, tunicamycin was added at either 300 ng/ml for B16F10 cells or at 100 ng/ml for A375 cells or at 200 ng/ml for NHEM to induce stress mediated cell death and cultured further for a total of 72 hours. The vehicle (DMSO) concentration was kept constant for each well. After 72 hours of treatment, MTT assay was performed to measure the cell growth and vehicle control was kept at 100%. Effect of the treatment of compounds was calculated as cell growth over tunicamycin treatment. For the estimation of Effective Concentration 50 (EC50), cells were treated with different concentration of compounds along with tunicamycin and MTT assay was performed. The EC50 values were calculated by GraphPad Prism 7 software.
A general note: Tetrazolium dyes change colour on reduction, which living cells bring about.

The test system of another experiment is human A375 cells. The experiment can be described thus: Protection of melanocytes from tunicamycin (ER stress) induced cell death, MTT assay, A375. The settings on record: for pEC50: Homo sapiens, A-375, different concentrations of compound along with tunicamycin, GraphPad Prism 7; for % Recovery: compound at 25-30 μM, 6 h pretreatment, tunicamycin 100 ng/ml, total 72 h, cell growth over tunicamycin treatment. The procedure: as §1, §2

Experiment [1] relates to human primary melanocytes (NHEM: Normal Human Epidermal Melanocytes). The experiment can be described thus: Protection of melanocytes from tunicamycin (ER stress) induced cell death, MTT assay, NHEM. The settings on record: compound at 25-30 μM, 6 h pretreatment, tunicamycin 200 ng/ml, total 72 h, cell growth over tunicamycin treatment. The method, then: as §1, §2

pEC50: −log10 of the molar value.

The term pEC50 denotes −log10 of the EC50, conventionally taken in molar units. The low end stands for a high EC50, the high end for a low EC50. With `CCC(C)(C)C(=O)NCCc1c[nH]c(-c2ccc(Cl)cc2)n1` [Compound 026, N-(2-(2-(4-chlorophenyl)-1H-imidazol-4-yl)ethyl)-2,2-dimethylbutanamide], the negative logarithm of the EC50 (pEC50) in the experiment on mouse B16F10 cells is 5.07; in the experiment on human A375 cells it was 4.73. Further, the “% Recovery” value came out at 15% in the experiment on mouse B16F10 cells, 50% in the experiment with human A375 cells and 30% in experiment [1].

Consider `O=C(NCCc1c[nH]c(-c2ccc(Cl)cc2)n1)c1ccc(C(F)(F)F)cc1` [Compound 053, N-(2-(2-(4-chlorophenyl)-1H-imidazol-4-yl)ethyl)-4-(trifluoromethyl)benzamide], for which the pEC50 is 4.74 in the experiment on mouse B16F10 cells and 5.54 in the experiment with human A375 cells. For the same compound, the results for the “% Recovery” value (in the experiment on mouse B16F10 cells; in the experiment on human A375 cells; in experiment [1]) were 24%, 65% and 37%, respectively.

In the case of `O=C(NCCc1c[nH]c(-c2ccc(Cl)cc2)n1)c1ccc(F)cc1` [Compound 051, N-(2-(2-(4-chlorophenyl)-1H-imidazol-4-yl)ethyl)-4-fluorobenzamide], the “% Recovery” value in the experiment on mouse B16F10 cells came to 22%; in the experiment on human A375 cells, 50%; in experiment [1] it was 35%. Also, the negative logarithm of the EC50 (pEC50) with human A375 cells is 5.23.

On to `CCCC(=O)NCCc1c[nH]c(-c2ccc(Cl)cc2)n1` [Compound 002, N-(2-(2-(4-chlorophenyl)-1H-imidazol-4-yl)ethyl)butyramide], for which the pEC50 in the experiment with mouse B16F10 cells is 5.57; with human A375 cells, 4.69. The “% Recovery” value with mouse B16F10 cells is on record as 58%; in the experiment with human A375 cells, 22%; in experiment [1], 17%.

Consider `O=C(NCCc1c[nH]c(-c2ccc(Cl)cc2)n1)C1=CCCC1` [Compound 055, N-(2-(2-(4-chlorophenyl)-1H-imidazol-4-yl)ethyl)cyclopent-1-ene-1-carboxamide], for which the entries for the “% Recovery” value (in the experiment with mouse B16F10 cells; in the experiment on human A375 cells; in experiment [1]) were 10%, 59% and 13%, respectively. In the experiment with human A375 cells, this compound had a pEC50 of 5.05.

For `O=C(NCCc1c[nH]c(-c2ccc(Cl)cc2)n1)c1cc(F)cc(F)c1` [Compound 054, N-(2-(2-(4-chlorophenyl)-1H-imidazol-4-yl)ethyl)-3,5-difluorobenzamide], the “% Recovery” value in the experiment on mouse B16F10 cells was 33%; in the experiment with human A375 cells, 58%; in experiment [1], 46%. In the experiment on human A375 cells, this compound gave a pEC50 of 5.54.

For the compound `O=C(NCCc1c[nH]c(-c2ccc(Cl)cc2)n1)C1CCC1` [Compound 050, N-(2-(2-(4-chlorophenyl)-1H-imidazol-4-yl)ethyl)cyclobutanecarboxamide], the “% Recovery” value is on record as 35% with mouse B16F10 cells, 27% in the experiment on human A375 cells and 5% in experiment [1]. In the experiment on human A375 cells, the pEC50 was 4.48.

These data come from US12378203B2, “Imidazole compounds, process for the synthesis and uses thereof” (AHAMMUNE BIOSCIENCES PRIVATE LIMITED, priority 2018, dated 2025).
